One may read the Ki as a dissociation constant, usually derived from enzyme kinetics or from competition with a known ligand. Low values mean tighter binding, high ones weaker binding.

The target in one experiment is Acetylcholinesterase (Homo sapiens, UniProt P22303).
The next experiment has as its target Cholinesterase (Homo sapiens, UniProt P06276).
Experiment [1] addresses Cholinesterases; ACHE & BCHE (Homo sapiens) (UniProt P06276+P22303). Description: Selectivity ratio of Ki for human recombinant AChE to Ki for human recombinant BChE.

Chain of Cholinesterase (P06276 whole entry): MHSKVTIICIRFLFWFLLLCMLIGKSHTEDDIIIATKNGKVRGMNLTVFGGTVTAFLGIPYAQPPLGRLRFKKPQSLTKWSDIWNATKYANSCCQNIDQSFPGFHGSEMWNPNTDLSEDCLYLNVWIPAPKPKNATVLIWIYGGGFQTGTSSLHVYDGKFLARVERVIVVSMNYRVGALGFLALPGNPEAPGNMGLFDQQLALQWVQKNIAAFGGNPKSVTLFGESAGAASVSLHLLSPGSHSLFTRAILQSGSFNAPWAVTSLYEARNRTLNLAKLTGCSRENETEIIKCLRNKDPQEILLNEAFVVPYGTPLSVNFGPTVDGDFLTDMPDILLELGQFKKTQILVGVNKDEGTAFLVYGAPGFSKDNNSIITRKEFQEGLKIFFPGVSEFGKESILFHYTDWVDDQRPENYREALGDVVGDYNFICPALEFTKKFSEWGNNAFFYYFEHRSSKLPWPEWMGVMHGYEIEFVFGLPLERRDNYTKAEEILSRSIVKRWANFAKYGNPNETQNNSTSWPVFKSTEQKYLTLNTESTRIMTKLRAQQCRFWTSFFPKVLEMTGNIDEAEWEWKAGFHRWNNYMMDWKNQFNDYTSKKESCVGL
Chain of Acetylcholinesterase (P22303 whole entry): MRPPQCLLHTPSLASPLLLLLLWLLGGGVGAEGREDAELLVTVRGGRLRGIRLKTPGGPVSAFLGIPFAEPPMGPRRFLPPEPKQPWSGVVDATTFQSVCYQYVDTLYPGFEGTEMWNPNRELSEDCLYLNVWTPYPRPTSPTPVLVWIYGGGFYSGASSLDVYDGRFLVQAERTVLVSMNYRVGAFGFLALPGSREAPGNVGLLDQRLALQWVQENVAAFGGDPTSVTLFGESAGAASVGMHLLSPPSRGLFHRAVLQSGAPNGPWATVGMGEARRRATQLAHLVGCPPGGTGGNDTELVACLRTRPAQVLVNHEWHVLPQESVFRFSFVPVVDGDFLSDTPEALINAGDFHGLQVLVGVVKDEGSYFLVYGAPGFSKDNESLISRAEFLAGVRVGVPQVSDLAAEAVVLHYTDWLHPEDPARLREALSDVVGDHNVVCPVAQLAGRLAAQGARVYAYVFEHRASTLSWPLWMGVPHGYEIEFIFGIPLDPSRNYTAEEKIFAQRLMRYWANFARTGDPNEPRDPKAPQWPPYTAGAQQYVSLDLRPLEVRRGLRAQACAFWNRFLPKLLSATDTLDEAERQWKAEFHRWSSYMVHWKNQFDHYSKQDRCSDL
Chain of Cholinesterases; ACHE & BCHE (Homo sapiens) (P06276 whole entry, looked up): as the sequence (P06276 whole entry) above
Chain of Cholinesterases; ACHE & BCHE (Homo sapiens) (P22303 whole entry, looked up): as the sequence (P22303 whole entry) above
Description for Acetylcholinesterase: Inhibition of human recombinant AChE

For `CN[C@@H](Cc1c[nH]c2ccccc12)C(=O)NCC(=O)Nc1c2c(nc3ccccc13)CCCC2`, the inhibitory constant (Ki) was found to be 3330 nM on Acetylcholinesterase and 1760 nM at Cholinesterase.

With `N[C@@H](Cc1c[nH]c2ccccc12)C(=O)NCCNc1c2c(nc3ccccc13)CCCC2`, in experiment [1], the Ratio Ki stood at 210. For the same compound, the Ki amounted to 280 nM on Acetylcholinesterase and 1.33 nM on Cholinesterase.

For `N[C@@H](Cc1c[nH]c2ccccc12)C(=O)NCCC(=O)Nc1c2c(nc3ccccc13)CCCC2`, the Ratio Ki in experiment [1] turned out to be 197. The Ki stood at 34000 nM on Acetylcholinesterase and 173 nM at Cholinesterase.

`CC(C)(C)OC(=O)N[C@@H](Cc1c[nH]c2ccccc12)C(=O)NCCC(=O)Nc1c2c(nc3ccccc13)CCCC2`: the Ki at Acetylcholinesterase was found to be 7970 nM; on Cholinesterase it was 443 nM.

`CC(C)(C)OC(=O)N[C@@H](CCC(=O)NCCNc1c2c(nc3ccccc13)CCCC2)C(=O)NCCNc1c2c(nc3ccccc13)CCCC2`: the Ki was determined as 15.4 nM at Acetylcholinesterase and 12.6 nM on Cholinesterase.

As for `CC(C)(C)OC(=O)N[C@@H](Cc1c[nH]c2ccccc12)C(=O)NCCNc1c2c(nc3ccccc13)CCCC2`, the Ki at Acetylcholinesterase is 130 nM; on Cholinesterase, 1.87 nM.

For the compound `CN[C@@H](Cc1ccccc1)C(=O)NCC(=O)Nc1c2c(nc3ccccc13)CCCC2`, the inhibition constant Ki at Acetylcholinesterase was 6320 nM; at Cholinesterase, 1200 nM.

For the compound `O=C(CNC(=O)[C@@H]1Cc2ccccc2CN1)Nc1c2c(nc3ccccc13)CCCC2`, the Ki on Acetylcholinesterase is 4130 nM; at Cholinesterase it was 580 nM.

As for `N[C@@H](Cc1ccccc1)C(=O)NCC(=O)Nc1c2c(nc3ccccc13)CCCC2`, the Ki was 1910 nM at Acetylcholinesterase and 708 nM on Cholinesterase.

For `O=C(NCCCCCNc1c2c(nc3ccccc13)CCCC2)[C@@H]1CCCN1CCNc1c2c(nc3ccccc13)CCCC2`, the Ki on Acetylcholinesterase is 6.75 nM; on Cholinesterase, 1.77 nM.

`N[C@@H](Cc1c[nH]c2ccccc12)C(=O)NCC(=O)Nc1c2c(nc3ccccc13)CCCC2`: the Ki on Acetylcholinesterase turned out to be 2210 nM; at Cholinesterase it was 251 nM.

Regarding `N[C@@H](Cc1ccc2ccccc2c1)C(=O)NCC(=O)Nc1c2c(nc3ccccc13)CCCC2`, the Ki worked out at 11200 nM on Acetylcholinesterase and 252 nM on Cholinesterase.

As to `N[C@@H](CCC(=O)NCCNc1c2c(nc3ccccc13)CCCC2)C(=O)NCCNc1c2c(nc3ccccc13)CCCC2`, the Ki at Acetylcholinesterase was found to be 6.21 nM; at Cholinesterase, 25.1 nM.

The record behind these values is ChEMBL document CHEMBL1141710 (Bioorg Med Chem Lett, 2008).
